We go through 45 compounds from patent US8143419B2, “Trisubstituted 1,2,4-triazoles” (Janssen Pharmaceutica N. V., priority 2006, dated 2012).

A value given as a limit tells only on which side of the number the result lay.

The target in one data set is T1, hα7-wt nAChR (Homo sapiens, UniProt P36544).
T1 construct: expressed in transfected cells
Nature of the data set: Ca2+ flux imaging (FDSS) (Protocol B), PAM activity with choline as agonist. It is filed as cell-based. Particulars: for EC50: "<5" = no top plateau at maximal concentration; for Emax: read-out: % efficacy. The protocol:
• Hanks buffered saline solution (HBSS, Invitrogen, Belgium), supplemented with 10 mM HEPES (Invitrogen, Belgium), CaCl2 to a final concentration of 5 mM, 0.1% Bovine serum albumin (Sigma-Aldrich NV, Belgium). b) Calcium-Sensitive Dye—Fluo-4AM • Fluo-4AM (Molecular Probes, USA) was dissolved in DMSO containing 10% Pluronic acid (Molecular Probes, USA) to give a stock solution which was diluted in assay buffer supplemented with 5 mM probenicid (Sigma, Aldrich NV, Belgium) to give a final concentration of 2 μM. c) 384-Well Plates • Black 384 well plate black/clear plates, PDL pre-coated (Corning, Incorporated, USA) d) Calcium Flux Measurement
A Functional drug screening system (FDSS, Hamamatsu) was used to measure intracellular free-calcium flux signals.
Monolayers of hα7-wt nAChR-expressing cells were grown in multi-well plates, in particular black-sided, transparent bottomed 384 well plates coated with poly-D-lysine for 24 hours prior to loading with a fluorescent calcium indicator, in a particular embodiment loading with fluo-4AM for up to 120 minutes.
PAM activity was detected in real time by applying the compounds to be tested to the loaded cells along with a α7 nicotinic receptor agonist during constant monitoring of cellular fluorescence in a FDSS. Compounds giving peak fluorescent responses greater than the response due to agonist alone, were considered to be α7 nAChR PAM's. In a particular embodiment, the α7 nicotinic receptor agonist was choline, a more particular embodiment choline applied at a sub-maximal concentration of 100 μM. In a further setting of the present invention the compounds to be tested were applied prior to the α7 nicotinic receptor agonist, in a particular embodiment up to 10 minutes prior to the agonist.
A control response to choline was calculated on each plate from the difference in peak in fluorescence in wells receiving either choline or assay buffer alone. Compounds of the present invention were tested at a concentration range from 0.01 μM to 30 μM. Compounds were considered to have an interesting activity when they potentiated the choline signal at least with 500% when tested at a concentration of 30 μM (the efficacy of 100 μM choline was defined as 100% in the absence of a PAM). The compounds also have a potentiating effect on the response to choline when measured by whole-cell patch clamp electrophysiology in GH4C1 cells stably over-expressing the human wild-type α7 receptor.

T1 sequence (P36544 23-502): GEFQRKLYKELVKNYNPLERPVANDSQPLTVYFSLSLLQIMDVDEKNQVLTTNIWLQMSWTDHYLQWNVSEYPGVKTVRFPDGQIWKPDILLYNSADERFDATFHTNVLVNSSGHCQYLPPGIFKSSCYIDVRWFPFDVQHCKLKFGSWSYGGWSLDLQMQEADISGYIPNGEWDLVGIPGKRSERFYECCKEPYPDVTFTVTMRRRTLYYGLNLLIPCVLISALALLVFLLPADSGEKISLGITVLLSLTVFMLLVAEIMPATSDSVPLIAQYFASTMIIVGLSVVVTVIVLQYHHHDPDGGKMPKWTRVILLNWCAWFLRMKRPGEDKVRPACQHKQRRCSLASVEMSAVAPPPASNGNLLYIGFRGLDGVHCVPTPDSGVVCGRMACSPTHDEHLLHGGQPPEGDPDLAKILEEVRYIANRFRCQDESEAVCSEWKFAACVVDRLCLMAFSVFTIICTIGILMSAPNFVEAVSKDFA

As to `CC(=O)c1ccc(-c2nc(Nc3ccc(F)c(F)c3)nn2C[C@H](C)O)cn1` [Compound 50], the melting point is 147.8 °C. Also, at hα7-wt nAChR, the EC50 was 6.31 µM and the Emax was determined as 650%.
As for `CN(C)C(=O)CCn1nc(Nc2cccc(C(F)(F)F)c2)nc1-c1ccncc1` [Compound 4], the melting point lay within 164.2 to 174.2 °C. The EC50 at hα7-wt nAChR was 0.501 µM.
`COc1ccc(-c2nc(Nc3cccc(OC(F)(F)F)c3)nn2CC(=O)NC2CC2)cc1OC` [Compound 163] yielded a melting point of 192.7 to 195.3 °C. Also, the EC50 on hα7-wt nAChR is 0.631 µM.
In turn, `CC(C)c1ccc(-c2nc(Nc3ccc(F)c(C(F)(F)F)c3)nn2CCC(=O)N(C)C)cn1` [Compound 129] came in with a melting point of 176.3 °C. The EC50 at hα7-wt nAChR is 0.0398 µM.
For the compound `CNC(=O)Cn1nc(Nc2ccc(F)c(C(F)(F)F)c2)nc1-c1ccc(NC)nc1` [Compound 113], the melting point was found to be 256.6 °C. Moreover, the EC50 at hα7-wt nAChR is 2 µM.
As to `CNc1cc(-c2nc(Nc3ccc(F)c(C(F)(F)F)c3)nn2C[C@H](C)O)ccn1` [Compound 98], the melting point worked out at 164.5 °C. Besides, the EC50 at hα7-wt nAChR was above 10 µM.
Taken in the same sequence, the figures for `CCOC(=O)NCCn1nc(Nc2ccc(F)c(C(F)(F)F)c2)nc1-c1ccnc(C)c1` [Compound 139] were 160.5 °C and 1 µM.
`COCCNc1ccc(-c2nc(Nc3ccc(F)c(C(F)(F)F)c3)nn2CCC(=O)N(C)C)cn1` [Compound 131] displayed a melting point of 167.7 °C. Further, the half-maximal effective concentration (EC50) at hα7-wt nAChR was 0.398 µM.
For `COCCNC(=O)Cn1nc(Nc2cccc(C(F)(F)F)c2)nc1-c1ccncc1` [Compound 24], the melting point was in the range of 184.2 to 188.1 °C. In addition, the EC50 on hα7-wt nAChR is above 10 µM.
Turning to `Cc1cc(-c2nc(Nc3ccc(F)c(C)c3)nn2CCC(=O)N(C)C)ccn1` [Compound 184], the melting point was found to be 158.8 °C. Moreover, on hα7-wt nAChR, the EC50 is 0.794 µM.
`NC(=O)Cn1nc(Nc2cccc(C(F)(F)F)c2)nc1-c1ccc2c(c1)OCCO2` [Compound 21] yielded a melting point of 225.5 °C. Moreover, the 50% effective concentration (EC50) on hα7-wt nAChR was 1.26 µM.
On to `CNC(=O)Cn1nc(Nc2ccc3c(c2)OC(F)(F)O3)nc1-c1cc(C)ncc1Cl` [Compound 202], for which the melting point was determined as 243 °C. Moreover, the EC50 at hα7-wt nAChR was 3.16 µM.
As for `Cc1cc(-c2nc(Nc3cccc(C(F)(F)F)c3)nn2CCC(=O)N(C)C)ccn1` [Compound 48], the melting point was found to be 169.1 °C. The EC50 on hα7-wt nAChR was 0.631 µM.
As for `CNC(=O)Cn1nc(Nc2ccc(F)c(C(F)(F)F)c2)nc1-c1ccncc1Cl` [Compound 117], the melting point amounted to 199.2 °C. Also, the EC50 at hα7-wt nAChR is 1 µM.
Taken in the same sequence, the figures for `CN(C)C(=O)CCn1nc(Nc2ccc3c(c2)OC(F)(F)O3)nc1-c1ccncc1F` [Compound 210] were 201.5 °C and 0.316 µM.
Turning to `CC(C)(O)c1cc(-c2nc(Nc3ccc(F)c(C(F)(F)F)c3)nn2CC(=O)NC2CC2)ccn1` [Compound 122], the melting point came to 174 °C. In addition, at hα7-wt nAChR, the EC50 was 2 µM and the Emax was found to be 988%.
Compound `COc1cc(-c2nc(Nc3ccc(F)c(C(F)(F)F)c3)nn2CCO)ccn1` [Compound 90] returned a melting point of 177.1 °C. Moreover, the EC50 on hα7-wt nAChR is 2 µM.
On to `CCNC(=O)Cn1nc(Nc2ccc3c(c2)OC(F)(F)O3)nc1-c1ccnc(C)c1` [Compound 46], for which the melting point amounted to 244.9 °C. In addition, the EC50 on hα7-wt nAChR was 2 µM.
Compound `CCNC(=O)Cn1nc(Nc2ccc3c(c2)OC(F)(F)O3)nc1-c1ccnc(C)c1F` [Compound 201] displayed a melting point of 223.5 °C. Further, the EC50 at hα7-wt nAChR is 1 µM.
On to `CC(C)NC(=O)CCn1nc(Nc2ccc(F)c(C(F)(F)F)c2)nc1-c1ccncc1` [Compound 136], for which the melting point came out at 217.7 °C. In addition, the EC50 on hα7-wt nAChR is 3.16 µM.
For `CNC(=O)Cn1nc(Nc2cccc(OC(F)(F)F)c2)nc1-c1ccc2c(c1)OCCO2` [Compound 156], the melting point lay in the range of 185.8 to 191.3 °C. Besides, at hα7-wt nAChR, the EC50 is 0.398 µM.
The matching figures for `Cc1ccc(-c2nc(Nc3ccc(F)c(C(F)(F)F)c3)nn2CCC(=O)N(C)C)cn1` [Compound 127]: 185.4 °C and 0.2 µM.
In turn, `CN(C)C(=O)CCn1nc(Nc2cccc(OC(F)(F)F)c2)nc1-c1ccc(N)c(F)c1` [Compound 167] displayed a melting point of 157.1 °C. For the same compound, the EC50 on hα7-wt nAChR is 0.398 µM.
The matching figures for `Cc1cc(-c2nc(Nc3ccc4c(c3)OC(F)(F)O4)nn2CC(=O)NC2CCC2)ccn1` [Compound 205]: 224.8 °C and 0.794 µM.
Compound `CNC(=O)Cn1nc(Nc2ccc3c(c2)OC(F)(F)O3)nc1-c1cc(Cl)ncc1Cl` [Compound 203] had a melting point of 231.3 °C. Moreover, the EC50 at hα7-wt nAChR is 3.16 µM.
Compound `CNC(=O)c1ccc(-c2nc(Nc3ccc(F)c(F)c3)nn2C[C@H](C)O)cn1` [Compound 41] showed a melting point of 186.1 °C. At hα7-wt nAChR, the EC50 was above 10 µM and the Emax came to 635%.
`Cc1cc(-c2nc(Nc3ccc4c(c3)OC(F)(F)O4)nn2CC(=O)NC2CCCC2O)ccn1` (stereo not shown) [Compound 207] yielded a melting point of 219.7 °C. Besides, on hα7-wt nAChR, the EC50 is above 10 µM and the Emax was 811%.
`CCNc1cc(-c2nc(Nc3cc(F)c(F)c(F)c3)nn2C[C@H](C)O)ccn1` [Compound 39] displayed a melting point of 165.1 °C. In addition, the EC50 at hα7-wt nAChR was 1 µM.
The matching figures for `CCNC(=O)Cn1nc(Nc2cccc(OC(F)(F)F)c2)nc1-c1ccc2c(c1)OCCO2` [Compound 158]: 188.7 °C and 0.158 µM.
The compound `COc1cc(-c2nc(Nc3cccc(C(F)(F)F)c3)nn2CCC(=O)N(C)C)cc(C)n1` [Compound 83] had a melting point of 187.2 °C. At hα7-wt nAChR, the EC50 was 0.2 µM.
With `CNC(=O)Cn1nc(Nc2ccc3c(c2)OC(F)(F)O3)nc1-c1ccnc(C)c1` [Compound 200], the melting point came to 227 °C. Also, at hα7-wt nAChR, the EC50 was 2 µM.
The matching figures for `CC(C)Oc1cc(-c2nc(Nc3cccc(C(F)(F)F)c3)nn2CCO)ccn1` [Compound 74]: 159 °C and 1.26 µM.
Turning to `COc1ccc(-c2nc(Nc3cccc(C(F)(F)F)c3)nn2CCO)cn1` [Compound 72], the melting point is 160 °C. Moreover, the EC50 at hα7-wt nAChR was 1.26 µM.
Consider `COc1ccc(Nc2nc(-c3ccncc3Cl)n(CCC(=O)N(C)C)n2)cc1C(F)(F)F` [Compound 145], for which the melting point turned out to be 211.2 °C. For the same compound, the EC50 at hα7-wt nAChR was 0.2 µM.
As for `CN(C)C(=O)CCn1nc(Nc2ccc(F)c(C(F)(F)F)c2)nc1-c1ccnc(NC2CC2)c1` [Compound 134], the melting point was found to be 219.8 °C. Besides, the EC50 at hα7-wt nAChR is 0.02 µM.
As for `OCCn1nc(Nc2cc(Cl)ccc2Cl)nc1-c1ccncc1` [Compound 14], the melting point lay in the range of 163.4 to 165.2 °C. In addition, at hα7-wt nAChR, the EC50 is 5.01 µM.
For `CNC(=O)Cn1nc(Nc2ccc(F)c(C(F)(F)F)c2)nc1-c1ccc(C)nc1` [Compound 108], the melting point amounted to 247.1 °C. For the same compound, on hα7-wt nAChR, the EC50 was 2.51 µM.
In the case of `OCCn1nc(Nc2ccc(F)c(C(F)(F)F)c2)nc1-c1ccc(C2CC2)nc1` [Compound 94], the melting point came to 168 °C. In addition, on hα7-wt nAChR, the EC50 was 0.251 µM.
Turning to `CN(C)C(=O)CCn1nc(Nc2cccc(F)c2)nc1-c1ccc2c(c1)OCCO2` [Compound 194], the melting point was in the range of 114.3 to 116.3 °C. The EC50 on hα7-wt nAChR was 0.316 µM.
Taken in the same sequence, the figures for `CC(=O)CCCn1nc(Nc2ccc(F)c(C(F)(F)F)c2)nc1-c1ccnc(C)c1` [Compound 43] were 124.1 °C and 0.794 µM.
On to `CC(=O)NCCn1nc(Nc2ccc(F)c(C(F)(F)F)c2)nc1-c1ccncc1` [Compound 138], for which the melting point is 174.3 °C. The EC50 on hα7-wt nAChR is above 10 µM.
With `CCNc1ccc(-c2nc(Nc3cc(F)c(F)cc3F)nn2CCC(=O)N(C)C)cn1` [Compound 190], the melting point came out at 134.2 °C. For the same compound, on hα7-wt nAChR, the EC50 was 0.398 µM.
Taken in the same sequence, the figures for `C/C(N)=N/OC(=O)CCn1nc(Nc2ccc(F)c(C(F)(F)F)c2)nc1-c1ccncc1` [Compound 53] were 190.2 °C and 5.01 µM.
Turning to `NC(=O)CCn1nc(Nc2cccc(C(F)(F)F)c2)nc1-c1ccc2c(c1)OCCO2` [Compound 10], the melting point was in the range of 175.2 to 176.5 °C. Besides, the EC50 at hα7-wt nAChR is 2 µM.
In the case of `Cc1nc(CCn2nc(Nc3ccc(F)c(C(F)(F)F)c3)nc2-c2ccncc2)no1` [Compound 141], the melting point amounted to 140.3 °C. Moreover, the EC50 on hα7-wt nAChR was 2.51 µM.

Broadly, the EC50 is the concentration at which the effect is half-maximal. For orientation: melting point means the temperature of the solid-liquid transition.
